Results reported in patent US20240366589A1, “NHE3-BINDING COMPOUNDS AND METHODS FOR INHIBITING PHOSPHATE TRANSPORT” (Ardelyx, Inc., priority 2013, published 2024).

Key:
Human NHE3 = biological target: T1, Human NHE3 (Homo sapiens, UniProt P48764); assay: Cell-based NHE3 activity under prompt conditions (OK cells, BCECF pH recovery), human NHE3; conditions: prompt conditions
T1 construct: expressed in transfected cells; host or cells: Opossum kidney (OK) cells (ATCC), electroporation
T1 sequence (P48764 26-834): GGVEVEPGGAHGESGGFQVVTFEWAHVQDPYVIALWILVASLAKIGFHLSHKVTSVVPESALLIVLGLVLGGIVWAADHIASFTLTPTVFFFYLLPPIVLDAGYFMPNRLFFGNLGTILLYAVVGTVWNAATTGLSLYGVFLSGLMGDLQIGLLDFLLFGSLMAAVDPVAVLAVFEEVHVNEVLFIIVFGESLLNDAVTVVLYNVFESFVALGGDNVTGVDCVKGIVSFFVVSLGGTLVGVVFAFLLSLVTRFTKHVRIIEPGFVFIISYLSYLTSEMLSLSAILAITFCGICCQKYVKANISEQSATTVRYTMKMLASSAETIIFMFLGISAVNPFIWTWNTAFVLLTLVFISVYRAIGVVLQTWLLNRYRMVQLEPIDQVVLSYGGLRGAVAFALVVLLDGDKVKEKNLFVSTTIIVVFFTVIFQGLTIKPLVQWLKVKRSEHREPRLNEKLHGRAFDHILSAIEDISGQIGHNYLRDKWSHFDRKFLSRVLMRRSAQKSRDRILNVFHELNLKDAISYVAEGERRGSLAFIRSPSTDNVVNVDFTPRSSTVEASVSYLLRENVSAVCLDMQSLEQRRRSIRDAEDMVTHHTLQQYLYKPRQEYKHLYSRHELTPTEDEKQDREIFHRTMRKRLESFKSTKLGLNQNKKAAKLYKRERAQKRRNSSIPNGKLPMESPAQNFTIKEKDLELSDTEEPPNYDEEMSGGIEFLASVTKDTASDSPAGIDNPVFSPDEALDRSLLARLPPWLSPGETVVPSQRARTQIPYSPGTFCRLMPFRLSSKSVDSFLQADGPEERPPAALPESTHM
Procedure, shortened: (§1)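 Fluorometric NHE3 antiport assay in opossum kidney cells carrying rat or human NHE3, using BCECF pH recovery after NH4Cl-prepulse acid loading. pIC50 values derive from initial rates averaged across at least two replicates.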

[1] = tested on: absorption of sodium from the intestinal lumen; assay: Fecal form score (FFS) 16 h after oral dose in rats; format: in vivo, rat; conditions: oral gavage, 16 h post-dose, scale 1-5
Procedure, shortened: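 Fecal form was scored at 16 h post-dose on a 1–5 wetness scale (normal pellet to liquid stream), with two independent observations averaged across six rats per group. Animals were 8-week-old Sprague-Dawley rats given test compound or water orally in the late afternoon and kept in metabolic cages.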

[2] = tested on: phosphorus and calcium levels in the urine of rats; assay: Urinary excretion of phosphate and calcium in rats (16 h overnight urine); format: in vivo, rat; conditions: rats, oral gavage, 16 h post-dose
[3] = tested on: absorption of sodium from the intestinal lumen; assay: Inhibition of intestinal sodium absorption: urinary sodium (uNa) 16 h after single oral dose in rats; format: in vivo, rat; conditions: oral gavage, 16 h post-dose
Procedure, shortened: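 Urinary sodium mass over the 16 h after one oral gavage dose, measured by cation-exchange ion chromatography, reported as percent of water-vehicle group; ANOVA plus Dunnett's post hoc test. Groups of six 8-week-old Sprague-Dawley rats, housed individually in metabolic cages post-dose, fed and watered freely.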

Rat NHE3 = biological target: T2, Rat NHE3 (Rattus norvegicus, UniProt P26433); assay: Cell-based NHE3 activity under prompt conditions (OK cells, BCECF pH recovery), rat NHE3; conditions: prompt conditions
T2 construct: expressed in transfected cells; host or cells: Opossum kidney (OK) cells (ATCC), electroporation
Procedure, shortened: as §1

T2 sequence (P26433 29-831): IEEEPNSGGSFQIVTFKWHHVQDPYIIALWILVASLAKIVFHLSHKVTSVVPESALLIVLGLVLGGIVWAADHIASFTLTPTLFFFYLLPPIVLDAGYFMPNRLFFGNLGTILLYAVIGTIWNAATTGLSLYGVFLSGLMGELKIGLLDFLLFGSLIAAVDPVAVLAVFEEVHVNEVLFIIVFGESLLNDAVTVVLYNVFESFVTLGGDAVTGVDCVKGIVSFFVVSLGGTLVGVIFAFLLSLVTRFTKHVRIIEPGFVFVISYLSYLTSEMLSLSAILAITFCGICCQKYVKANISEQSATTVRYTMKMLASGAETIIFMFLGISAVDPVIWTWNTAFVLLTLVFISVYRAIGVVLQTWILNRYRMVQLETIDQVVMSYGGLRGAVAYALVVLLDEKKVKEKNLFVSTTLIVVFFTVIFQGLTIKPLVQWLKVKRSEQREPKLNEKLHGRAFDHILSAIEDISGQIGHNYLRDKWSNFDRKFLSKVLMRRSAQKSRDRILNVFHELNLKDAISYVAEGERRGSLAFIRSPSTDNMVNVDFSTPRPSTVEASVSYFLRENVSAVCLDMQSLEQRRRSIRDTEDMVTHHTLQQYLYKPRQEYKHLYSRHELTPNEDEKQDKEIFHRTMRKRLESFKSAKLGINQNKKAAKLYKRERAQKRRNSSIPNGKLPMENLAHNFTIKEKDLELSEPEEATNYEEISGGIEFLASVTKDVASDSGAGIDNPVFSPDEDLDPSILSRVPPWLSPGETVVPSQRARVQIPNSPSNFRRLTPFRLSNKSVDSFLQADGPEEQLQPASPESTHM

Structure (SMILES)	Prompt Human NHE3 pIC50 (Human NHE3)	Fecal Form Score average ([1]; dose 1 mg/kg)	Fecal Form Score average ([1]; dose 3 mg/kg)	Urine P % of control ([2]; dose 1 mg/kg) [%]	Urine P % of control ([2]; dose 3 mg/kg) [%]	Urine Na % of control ([3]; dose 1 mg/kg) [%]	Urine Na % of control ([3]; dose 3 mg/kg) [%]	Prompt Rat NHE3 pIC50 (Rat NHE3)	Fecal Form Score average ([1]; dose 10 mg/kg)	Urine P % of control ([2]; dose 10 mg/kg) [%]	Urine Na % of control ([3]; dose 10 mg/kg) [%]	IC50 (Human NHE3; read-out: Prompt Human NHE3 pIC50 (converted)) [nM]	IC50 (Rat NHE3; read-out: Prompt Rat NHE3 pIC50 (converted)) [nM]	Fecal Form Score average ([1]; dose 2 mg/kg)	Urine P % of control ([2]; dose 2 mg/kg) [%]	Urine Na % of control ([3]; dose 2 mg/kg) [%]
CN1Cc2c(Cl)cc(Cl)cc2[C@H](c2cccc(S(=O)(=O)NCCOCCOCCNC(=O)CCC(CCC(=O)NCCOCCOCCNS(=O)(=O)c3cccc([C@@H]4CN(C)Cc5c(Cl)cc(Cl)cc54)c3)(CCC(=O)NCCOCCOCCNS(=O)(=O)c3cccc([C@@H]4CN(C)Cc5c(Cl)cc(Cl)cc54)c3)NC(=O)CCCC(=O)O)c2)C1 [compound 137]	7.30	1	3	137	139	39	28	7.30								
CN(CC(=O)O)CC(=O)NC(CCC(=O)NCCOCCOCCNS(=O)(=O)c1cccc([C@@H]2CN(C)Cc3c(Cl)cc(Cl)cc32)c1)(CCC(=O)NCCOCCOCCNS(=O)(=O)c1cccc([C@@H]2CN(C)Cc3c(Cl)cc(Cl)cc32)c1)CCC(=O)NCCOCCOCCNS(=O)(=O)c1cccc([C@@H]2CN(C)Cc3c(Cl)cc(Cl)cc32)c1 [compound 138]	7.30		2		78		37	7.30								
CN1Cc2c(Cl)cc(Cl)cc2[C@H](c2cccc(S(=O)(=O)NCCOCCOCCNC(=O)CCC(CCC(=O)NCCOCCOCCNS(=O)(=O)c3cccc([C@@H]4CN(C)Cc5c(Cl)cc(Cl)cc54)c3)(CCC(=O)NCCOCCOCCNS(=O)(=O)c3cccc([C@@H]4CN(C)Cc5c(Cl)cc(Cl)cc54)c3)NC(=O)COCC(=O)O)c2)C1 [compound 139]	7.80	1	3	63	45	80	27	7.60								
O=C(NCCCCNC(=O)NCCOCCOCCNS(=O)(=O)c1ccc(O[C@H]2c3cc(F)ccc3C[C@@H]2N2CCCCC2)cc1)NCCOCCOCCNS(=O)(=O)c1ccc(O[C@H]2c3cc(F)ccc3C[C@@H]2N2CCCCC2)cc1 [compound 140]	7.70							8.90	1	121	110					
CN1Cc2c(Cl)cc(Cl)cc2[C@H](c2cccc(S(=O)(=O)NCCOCCOCCNC(=O)CCC(CCC(=O)NCCOCCOCCNS(=O)(=O)c3cccc([C@@H]4CN(C)Cc5c(Cl)cc(Cl)cc54)c3)(CCC(=O)NCCOCCOCCNS(=O)(=O)c3cccc([C@@H]4CN(C)Cc5c(Cl)cc(Cl)cc54)c3)NC(=O)N(C)C[C@H](O)[C@@H](O)[C@H](O)[C@H](O)CO)c2)C1 [compound 142]	7.10		2		38		45	8.10								
CN1Cc2c(Cl)cc(Cl)cc2[C@H](c2cccc(S(=O)(=O)NCCOCCOCCNC(=O)CCC(CCC(=O)NCCOCCOCCNS(=O)(=O)c3cccc([C@@H]4CN(C)Cc5c(Cl)cc(Cl)cc54)c3)(CCC(=O)NCCOCCOCCNS(=O)(=O)c3cccc([C@@H]4CN(C)Cc5c(Cl)cc(Cl)cc54)c3)NC(=O)NC[C@H](O)[C@@H](O)[C@H](O)[C@H](O)CO)c2)C1 [compound 143]	7.27	1	3	73	93	68	34	7.25								
CN1Cc2c(Cl)cc(Cl)cc2[C@H](c2cccc(S(=O)(=O)NCCOCCOCCNC(=O)CCC(CCC(=O)NCCOCCOCCNS(=O)(=O)c3cccc([C@@H]4CN(C)Cc5c(Cl)cc(Cl)cc54)c3)(CCC(=O)NCCOCCOCCNS(=O)(=O)c3cccc([C@@H]4CN(C)Cc5c(Cl)cc(Cl)cc54)c3)NC(=O)NCCN3CCOCC3)c2)C1 [compound 144]	7.77		2		47		32	7.20								
CC1Cc2c(Cl)cc(Cl)cc2[C@H](c2cccc(S(=O)(=O)NCCOCCOCCNC(=O)CCC(CCC(=O)NCCOCCOCCNS(=O)(=O)c3cccc([C@@H]4CN(C)Cc5c(Cl)cc(Cl)cc54)c3)(CCC(=O)NCCOCCOCCNS(=O)(=O)c3cccc([C@@H]4CN(C)Cc5c(Cl)cc(Cl)cc54)c3)NC(=O)N[C@@H](CC(=O)O)C(=O)O)c2)C1 (stereo partly drawn) [compound 145]			3		51		41					20	25.1			
CN1Cc2c(Cl)cc(Cl)cc2[C@H](c2cccc(S(=O)(=O)N(CCO)CCOCCOCCNC(=O)NCCCN(CCCNC(=O)NCCOCCOCCN(CCO)S(=O)(=O)c3cccc([C@@H]4CN(C)Cc5c(Cl)cc(Cl)cc54)c3)CCCNC(=O)NCCOCCOCCN(CCO)S(=O)(=O)c3cccc([C@@H]4CN(C)Cc5c(Cl)cc(Cl)cc54)c3)c2)C1 [compound 146]	8.35		2		58		70	7.80								
CN1Cc2c(Cl)cc(Cl)cc2[C@H](c2cccc(S(=O)(=O)NCCOCCOCCNC(=O)NCCCC(N)(CCCNC(=O)NCCOCCOCCNS(=O)(=O)c3cccc([C@@H]4CN(C)Cc5c(Cl)cc(Cl)cc54)c3)CCCNC(=O)NCCOCCOCCNS(=O)(=O)c3cccc([C@@H]4CN(C)Cc5c(Cl)cc(Cl)cc54)c3)c2)C1 [compound 147]	7.67		2		32		40	7.00								
CN(C)[C@H]1Cc2c(Cl)cc(Cl)cc2[C@@H]1Oc1ccc(S(=O)(=O)NCCOCCOCCNC(=O)CCC(=O)NCCOCCOCCNS(=O)(=O)c2ccc(O[C@H]3c4cc(Cl)cc(Cl)c4C[C@@H]3N(C)C)cc2)cc1 [compound 148]	7.80		1		146		49	8.40								
CN(C)[C@H]1Cc2c(Cl)cc(Cl)cc2[C@@H]1Oc1ccc(S(=O)(=O)NCCOCCOCCNC(=O)COCC(=O)NCCOCCOCCNS(=O)(=O)c2ccc(O[C@H]3c4cc(Cl)cc(Cl)c4C[C@@H]3N(C)C)cc2)cc1 [compound 149]	8.00	1	1	122	115	54	46	8.10						2	69	53
